The subject of one series is Aβ42. The experiment in a line: Aβ42 IC50 assay (SHSYSY-APP cell-based screening, UCSD sandwich Aβ42 ELISA). The text has this: FIG. 8: Representative concentration response curves of Compound 1 using our primary and orthogonal medium throughput SHSYSY-APP cell-based screening assays (10). Compounds are first screened two times in triplicate in our UCSD sandwich Aβ42 ELISA on sequential days and the average of the two assays must be within 3-fold of each other before being entered into the CDD relational database. The UCSD sandwich ELISA assay can easily handle 20 compounds per week. Compounds with Aβ42 IC50 values <100 nM continue through the testing funnel. The Z′ score and the % CV for the UCSD Aβ42 sandwich ELISA assay are 0.8 and 4, respectively. For the Meso Scale triplex assay the Z′ scores are 0.7, 0.9 and 0.6 Aβ42, Aβ40 and Aβ38, respectively and the % CV's are 7, 2 and 1 for Aβ42, Aβ40 and Aβ38, respectively. Aβ total peptides are measured using a sandwich ELISA.
Tabular Results of A1142 Assays Conducted on Compounds of Examples 5-102. Assays are Aβ42 IC50 (nM).
For orientation: In an ELISA, binding on a coated surface is turned into a signal by an enzyme label.

The next series has as its system Notch processing. The experiment in a line: Notch processing in transfected H4-APP751 cells (Western blot, Myc antibody, NICD). The class given is cell-based, human. Particulars: 24 hrs; for Notch processing (NICD levels, Western blot): H4-APP751 cells transfected with the Notch NδED construct, 40 nM, 200 nM, 1000 nM, and 5000 nM. The text has this:
Cells were harvested 48 hrs post transfection and applied to Western blotting analysis. Myc antibody was utilized to assess the NAED and NICD tagged with Myc on their N-termini. β-Actin was utilized as the loading control.
Cells were harvested 48 hrs post transfection and subjected to Western blotting analysis. Myc antibody was utilized to assess the NδED and NICD tagged with Myc on their N-termini.
Stable H4 human neuroglioma cells over-expressing human APP751, or H4-APP751 cells, were transfected with the NAE construct, and then treated with different concentrations SGSM Compound 1 (Lanes 1-6) or DAPT (Lanes 7-10) for another 24 hrs and are shown in FIG. 9. Cells were harvested 48 hrs post transfection and applied to Western blotting analysis. Myc antibody was utilized to assess the NAED and NICD tagged with Myc on their N-termini β-Actin was utilized as the loading control.
Stably-transfected H4 human neuroglioma cells over-expressing human APP751 (H4-APP751) cells, were transfected with the Notch NδED construct, and then treated with vehicle, or different doses of GSMs (40 nM, 200 nM, 1000 nM, and 5000 nM) for 24 hrs. Cells were harvested 48 hrs post transfection and subjected to Western blotting analysis.

As usually defined, the IC50 is the concentration that gives 50% inhibition. The melting point is the temperature, or range, at which the solid turns liquid.

Entries after “also recorded” stand apart in the source; their conditions may differ. Some results are limits rather than exact numbers.

Regarding `COc1nc(-c2cc(C)c(N[C@@H]3C[C@H]3c3ccccc3)nn2)ccc1-n1cnc(C)c1` (racemic) [Example 72, (+/−)-trans-6-(6-methoxy-5-(4-methyl-1H-imidazol-1-yl)pyridin-2-yl)-4-methyl-N-(2-phenylcyclopropyl)pyridazin-3-amine], the melting point lay in the range of 99 to 102 °C. The same molecule gave an IC50 in the series on Aβ42 of 7.1 nM.

Molecule `COc1nc(-c2ccc(N[C@@H](C)c3ccc(F)cc3)nn2)ccc1-n1cnc(C)c1` [Compound 2, (S)—N-(1-(4-Fluorophenyl)ethyl)-6-(6-methoxy-5-(4-methyl-1H-imidazol-1-yl)pyridin-2-yl)pyridazin-3-amine] gave a melting point of 96 to 102 °C.

As to `C[C@H](NC(=O)Cc1cc(F)cc(F)c1)C(=O)N[C@H](C(=O)OC(C)(C)C)c1ccccc1` [DAPT, reference compound], the “Notch processing (NICD, Western blot)” value with Notch processing (H4-APP751 cells transfected with the NAE construct, different concentrations) is “significantly inhibits Notch processing”. The “Notch processing (NICD levels, Western blot)” value in the series with Notch processing was “significantly inhibits Notch processing”.

In turn, `COc1nc(-c2cc(C(C)C)c(NCc3ccc(F)cc3)nn2)ccc1-n1cnc(C)c1` [Example 13, N-(4-fluorobenzyl)-4-isopropyl-6-(6-methoxy-5-(4-methyl-1H-imidazol-1-yl)pyridin-2-yl)pyridazin-3-amine] yielded a melting point of 245 to 246 °C. In the series on Aβ42, this molecule registered an IC50 of 21 nM.

The molecule `COc1nc(-c2ccc(N)nn2)ccc1-n1cnc(C)c1` [Example 24A, 6-(6-Methoxy-5-(4-methyl-1H-imidazol-1-yl)pyridin-2-yl)pyridazin-3-amine] showed a melting point of more than 250 °C.

For `COc1nc(-c2ccc(NC(=O)c3ccc(F)cc3)nn2)ccc1-n1cnc(C)c1` [Example 24B, 4-Fluoro-N-(6-(6-methoxy-5-(4-methyl-1H-imidazol-1-yl)pyridin-2-yl)pyridazin-3-yl)benzamide], the melting point is more than 250 °C. In the series with Aβ42, the IC50 is more than 10000 nM.

With `COc1nc(-c2ccc(NCc3ccc(F)cc3)nn2)ccc1-n1cnc(C)c1` [Example 26, N-(4-fluorobenzyl)-6-(6-methoxy-5-(4-methyl-1H-imidazol-1-yl)pyridin-2-yl)pyridazin-3-amine], the melting point was 170 to 172 °C. For the same molecule, the IC50 in the series with Aβ42 was found to be 36 nM.

With `COc1nc(-c2nnc(N[C@@H](C)c3ccccc3)cc2C)ccc1-n1cnc(C)c1` [Example 28, (S)-6-(6-methoxy-5-(4-methyl-1H-imidazol-1-yl)pyridin-2-yl)-5-methyl-N-(1-phenylethyl)pyridazin-3-amine], the melting point lay in the range of 140 to 143 °C. This molecule also yielded an IC50 in the series on Aβ42 of 18 nM.

On to `COc1nc(-c2cc(C)c(N[C@@H](C)c3ccccc3F)nn2)ccc1-n1cnc(C)c1` [Example 34, (S)—N-(1-(2-fluorophenyl)ethyl)-6-(6-methoxy-5-(4-methyl-1H-imidazol-1-yl)pyridin-2-yl)-4-methylpyridazin-3-amine], for which the IC50 with Aβ42 is 4.3 nM. The “Notch processing (NICD levels, Western blot)” value in the series with Notch processing is “did not decrease the NICD levels at all concentrations studied; also recorded: not inhibit Notch processing”.

Take `COc1nc(-c2cc(C)c(N[C@@H](C)c3ccc(F)cc3F)nn2)ccc1-n1cnc(C)c1` [Example 45, (S)—N-(1-(2,4-difluorophenyl)ethyl)-6-(6-methoxy-5-(4-methyl-1H-imidazol-1-yl)pyridin-2-yl)-4-methylpyridazin-3-amine]: the IC50 in the series on Aβ42 came to 2.5 nM. Besides, the “Notch processing (NICD levels, Western blot)” value with Notch processing is on record as “did not decrease the NICD levels at all concentrations studied; also recorded: not inhibit Notch processing”.

Regarding `COc1nc(-c2cc(C)c(NCCc3ccc(F)cc3)nn2)ccc1-n1cnc(C)c1` [Example 50, N-(4-fluorophenethyl)-6-(6-methoxy-5-(4-methyl-1H-imidazol-1-yl)pyridin-2-yl)-4-methylpyridazin-3-amine], the melting point lay within 204 to 206 °C. In addition, the IC50 in the series on Aβ42 was 38 nM.

`COc1nc(-c2cc(C)c(NC(C)C)nn2)ccc1-n1cnc(C)c1` [Example 65, N-isopropyl-6-(6-methoxy-5-(4-methyl-1H-imidazol-1-yl)pyridin-2-yl)-4-methylpyridazin-3-amine] registered a melting point of 228 to 229 °C. Moreover, in the series with Aβ42, the IC50 amounted to 188 nM.

In turn, `COc1nc(-c2cc(C)c(NCCCc3ccc(F)cc3)nn2)ccc1-n1cnc(C)c1` [Example 73, N-(3-(4-fluorophenyl)propyl)-6-(6-methoxy-5-(4-methyl-1H-imidazol-1-yl)pyridin-2-yl)-4-methylpyridazin-3-amine] had a melting point of 204 to 206 °C. This molecule registered an IC50 in the series on Aβ42 of 26 nM.

As for `COc1nc(-c2cc(C)c(N[C@@H](C)c3ccc(F)cc3C(F)(F)F)nn2)ccc1-n1cnc(C)c1` [Example 82, (S)—N-(1-(4-fluoro-2-(trifluoromethyl)phenyl)ethyl)-6-(6-methoxy-5-(4-methyl-1H-imidazol-1-yl)pyridin-2-yl)-4-methylpyridazin-3-amine], in the series on Aβ42, it took 3.5 nM to reach half-maximal inhibition (IC50).

`COc1nc(-c2cc(C)c(N[C@@H]3C[C@H]3c3ccc(F)c(F)c3)nn2)ccc1-n1cnc(C)c1` [Example 83, N-((1R,2S)-2-(3,4-difluorophenyl)cyclopropyl)-6-(6-methoxy-5-(4-methyl-1H-imidazol-1-yl)pyridin-2-yl)-4-methylpyridazin-3-amine] yielded an IC50 in the series with Aβ42 of 27 nM.

Regarding `CC[C@H](Nc1nnc(-c2ccc(-n3cnc(C)c3)c(OC)n2)cc1C)c1ccc(C#N)cc1` [Example 84, (S)-4-(1-((6-(6-methoxy-5-(4-methyl-1H-imidazol-1-yl)pyridin-2-yl)-4-methylpyridazin-3-yl)amino)propyl)benzonitrile], the IC50 in the series on Aβ42 was determined as 23 nM.

In the case of `COc1nc(-c2cc(C)c(NC3CCC(F)(F)CC3)nn2)ccc1-n1cnc(C)c1` [Example 85, N-(4,4-difluorocyclohexyl)-6-(6-methoxy-5-(4-methyl-1H-imidazol-1-yl)pyridin-2-yl)-4-methyl pyridazin-3-amine], in the series with Aβ42, half-maximal inhibition (IC50) was put at 70 nM.

On to `CCC[C@H](Nc1nnc(-c2ccc(-n3cnc(C)c3)c(OC)n2)cc1C)c1ccccc1F` [Example 86, (S)—N-(1-(2-fluorophenyl)butyl)-6-(6-methoxy-5-(4-methyl-1H-imidazol-1-yl)pyridin-2-yl)-4-methylpyridazin-3-amine], for which the IC50 in the series on Aβ42 came out at 4.5 nM.

Take `COC[C@H](Nc1nnc(-c2ccc(-n3cnc(C)c3)c(OC)n2)cc1C)c1ccc(F)cc1` [Example 87, (R)—N-(1-(4-fluorophenyl)-2-methoxyethyl)-6-(6-methoxy-5-(4-methyl-1H-imidazol-1-yl)pyridin-2-yl)-4-methylpyridazin-3-amine]: the midpoint of inhibition in the series on Aβ42, the IC50, lay at 11.5 nM.

With `CC[C@H](Nc1nnc(-c2ccc(-n3cnc(C)c3)c(OC)n2)cc1C)c1ccccc1F` [Example 88, (S)—N-(1-(2-fluorophenyl)propyl)-6-(6-methoxy-5-(4-methyl-1H-imidazol-1-yl)pyridin-2-yl)-4-methylpyridazin-3-amine], in the series on Aβ42, the IC50 was determined as 12 nM.

For the molecule `COc1nc(-c2cc(C)c(N[C@@H](C)c3cccc(C)c3C)nn2)ccc1-n1cnc(C)c1` [Example 100, (S)—N-(1-(2,3-dimethylphenyl)ethyl)-6-(6-methoxy-5-(4-methyl-1H-imidazol-1-yl)pyridin-2-yl)-4-methylpyridazin-3-amine], the IC50 in the series with Aβ42 came out at 4 nM.

As to `COc1nc(-c2cc(C)c(N[C@@H](C)c3cccc(C(F)(F)F)c3F)nn2)ccc1-n1cnc(C)c1` [Example 101, (S)—N-(1-(2-fluoro-3-(trifluoromethyl)phenyl)ethyl)-6-(6-methoxy-5-(4-methyl-1H-imidazol-1-yl)pyridin-2-yl)-4-methylpyridazin-3-amine], half-maximal inhibition in the series with Aβ42 (IC50) required 5 nM.

In turn, `COc1nc(-c2cc(C)c(N[C@H](c3ccc(F)cc3)C(C)(C)O)nn2)ccc1-n1cnc(C)c1` [Example 102, (R)-1-(4-fluorophenyl)-1-((6-(6-methoxy-5-(4-methyl-1H-imidazol-1-yl)pyridin-2-yl)-4-methylpyridazin-3-yl)amino)-2-methylpropan-2-ol] gave an IC50 with Aβ42 of 6 nM.

In the series with Aβ42, `COc1nc(-c2cc(C)c(N[C@H](C)c3ccc(F)cc3Cl)nn2)ccc1-n1cnc(C)c1` [Example 103, (R)—N-(1-(2-chloro-4-fluorophenyl)ethyl)-6-(6-methoxy-5-(4-methyl-1H-imidazol-1-yl)pyridin-2-yl)-4-methylpyridazin-3-amine] showed an IC50 of 13 nM.

For the origin of these results see patent US10472346B2, “Potent gamma-secretase modulators” (The General Hospital Coporation, priority 2014, dated 2019).
